One experiment concerns the target Carbonic anhydrase 9 (Homo sapiens, UniProt Q16790). Description: Inhibition of recombinant human carbonic anhydrase 9 preincubated for 15 mins by phenol red dye based stopped flow CO2 hydration assay.
Experiment [1] deals with MDA-MB-231. In words: Cytotoxicity against human MDA-MB-231 cells assessed as reduction in cell viability at 30 uM after 48 hrs under hypoxia condition by MTT assay relative to control. It is filed as functional.
For experiment [2], the system named is MDA-MB-231. Description: Cytotoxicity against human MDA-MB-231 cells assessed as reduction in cell viability at 3 to 10 uM after 48 hrs under normoxia condition by MTT assay. The class given is functional, cell-based. In general terms: Formazan colour is commonly taken as a measure of viable cells.
Experiment [3] relates to MDA-MB-231. Description: Cytotoxicity against human MDA-MB-231 cells assessed as reduction in cell viability at 3 uM after 48 hrs under normoxia condition by MTT assay relative to control. It is filed as functional.
Experiment [4] relates to MDA-MB-231. Description: Cytotoxicity against human MDA-MB-231 cells assessed as reduction in cell viability at 10 uM after 48 hrs under normoxia condition by MTT assay. It is filed as functional, cell-based.
Experiment [5] deals with MDA-MB-231. Description: Cytotoxicity against human MDA-MB-231 cells assessed as reduction in cell viability at 3 uM after 48 hrs under hypoxia condition by MTT assay relative to control. The class given is functional.

What is called Ki is a measure of affinity in units of concentration, obtained from inhibition or displacement.

Structures are written as SMILES. Calls of active or inactive are those of the source. The calls are words filed in the database; no cut-off is given here.

Consider `CC[Te]CC(O)COc1ccc(S(N)(=O)=O)cc1` (centres undefined), for which the Ki at Carbonic anhydrase 9 was 0.0407 µM.

With `COc1ccc([Te]CC(O)COc2ccc(S(N)(=O)=O)cc2)cc1` (centres undefined), the Ki on Carbonic anhydrase 9 is 0.0078 µM. Still for that read-out and setting: as for `NS(=O)(=O)c1ccc(OCC(O)C[Te]CC(O)COc2ccc(S(N)(=O)=O)cc2)cc1` (centres undefined), the figure is 0.809 µM. For `NS(=O)(=O)c1ccc(OCC(O)C[Te]c2ccc3ccccc3c2)cc1` (centres undefined), the Ki on Carbonic anhydrase 9 worked out at 0.0064 µM. In addition, the Activity in the experiment on MDA-MB-231 [1] came to 90%. Further, the result with MDA-MB-231 [2] was Active.

For the compound `NS(=O)(=O)c1ccc(OCC(O)C[Te]c2ccccc2)cc1` (centres undefined), the Ki at Carbonic anhydrase 9 was 0.0148 µM. Consider `Cc1ccc([Te]CC(O)COc2ccc(S(N)(=O)=O)cc2)cc1` (centres undefined), for which, at Carbonic anhydrase 9, the Ki is 0.118 µM.

`Cc1ccccc1[Te]CC(O)COc1ccc(S(N)(=O)=O)cc1` (centres undefined): at Carbonic anhydrase 9, the Ki came out at 0.0095 µM. Moreover, the values for the Activity with MDA-MB-231 [3], with MDA-MB-231 [5] and in the experiment on MDA-MB-231 [1] were above 50%, 32% and above 50%, respectively. Moreover, in the experiment with MDA-MB-231 [4], the outcome was Active. `CCCC[Te]CC(O)COc1ccc(S(N)(=O)=O)cc1` (centres undefined): the Ki at Carbonic anhydrase 9 turned out to be 0.333 µM.

For the origin of these results see ChEMBL document CHEMBL4359874, “Synthesis of novel tellurides bearing benzensulfonamide moiety as carbonic anhydrase inhibitors with antitumor activity” (Eur J Med Chem, 2019).
